According to patent US6534525B1, “2-substituted piperidine analogs and their use as subtype-selective NMDA receptor antagonists” (Warner-Lambert & Company, priority 1995, dated 2003):

Assays:
[1] = target: NMDA receptor subunits 1A/2A (NR1A+NR2A) (Rattus norvegicus, UniProt P35439+Q00959); assay: Electrophysiological assay at cloned NMDA receptor subunits expressed in Xenopus oocytes, 1A/2A; assay type: cell-based; conditions: cloned rat NMDA receptor in Xenopus oocytes, two-electrode voltage clamp, currents activated by glutamate and glycine; read-out: Subunits (IC50(μM)) 1A/2A
Sequence of NMDA receptor subunits 1A/2A (NR1A+NR2A) (Q00959 23-1464, other chains not shown): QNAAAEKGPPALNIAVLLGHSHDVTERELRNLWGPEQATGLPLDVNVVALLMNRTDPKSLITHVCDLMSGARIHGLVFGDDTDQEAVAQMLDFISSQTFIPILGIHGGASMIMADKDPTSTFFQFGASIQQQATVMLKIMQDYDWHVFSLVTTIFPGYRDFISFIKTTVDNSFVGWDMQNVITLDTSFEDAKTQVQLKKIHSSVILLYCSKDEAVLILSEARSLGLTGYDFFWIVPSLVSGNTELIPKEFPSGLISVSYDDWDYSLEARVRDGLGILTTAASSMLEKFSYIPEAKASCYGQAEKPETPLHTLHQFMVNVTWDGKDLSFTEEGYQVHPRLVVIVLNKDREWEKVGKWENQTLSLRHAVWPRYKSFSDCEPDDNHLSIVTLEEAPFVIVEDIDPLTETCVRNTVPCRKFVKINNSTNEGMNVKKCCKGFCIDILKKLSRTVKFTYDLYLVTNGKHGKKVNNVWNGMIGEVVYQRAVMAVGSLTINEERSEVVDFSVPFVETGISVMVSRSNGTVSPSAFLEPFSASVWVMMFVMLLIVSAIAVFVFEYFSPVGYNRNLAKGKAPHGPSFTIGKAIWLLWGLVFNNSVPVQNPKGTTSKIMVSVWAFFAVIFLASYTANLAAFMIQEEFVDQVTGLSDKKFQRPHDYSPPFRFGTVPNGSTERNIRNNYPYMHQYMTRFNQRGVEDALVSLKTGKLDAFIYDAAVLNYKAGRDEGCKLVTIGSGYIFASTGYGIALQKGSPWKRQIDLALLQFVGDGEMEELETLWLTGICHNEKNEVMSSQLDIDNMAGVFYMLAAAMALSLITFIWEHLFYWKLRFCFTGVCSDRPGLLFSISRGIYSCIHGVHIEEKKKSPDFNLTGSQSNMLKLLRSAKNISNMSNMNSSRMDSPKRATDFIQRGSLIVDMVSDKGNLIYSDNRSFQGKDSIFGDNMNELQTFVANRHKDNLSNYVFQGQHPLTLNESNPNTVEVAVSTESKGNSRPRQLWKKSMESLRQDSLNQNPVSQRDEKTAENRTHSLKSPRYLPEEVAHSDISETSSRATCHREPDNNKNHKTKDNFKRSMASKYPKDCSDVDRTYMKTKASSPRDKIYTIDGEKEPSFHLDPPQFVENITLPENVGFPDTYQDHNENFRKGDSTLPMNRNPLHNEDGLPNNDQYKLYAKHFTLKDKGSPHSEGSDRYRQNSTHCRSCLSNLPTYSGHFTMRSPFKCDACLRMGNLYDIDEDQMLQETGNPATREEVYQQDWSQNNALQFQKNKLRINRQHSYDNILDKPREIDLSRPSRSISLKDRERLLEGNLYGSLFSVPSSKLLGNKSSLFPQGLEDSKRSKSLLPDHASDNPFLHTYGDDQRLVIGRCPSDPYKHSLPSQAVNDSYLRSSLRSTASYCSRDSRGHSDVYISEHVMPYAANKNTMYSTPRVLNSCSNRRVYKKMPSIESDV
Description: (§1) Electrophysiological Assays at NMDA Receptor Subunits
(§2) The clones were transformed into appropriate host bacteria and plasmid preparations were made with conventional DNA purification techniques. A sample of each clone was linearized by restriction enzyme digestion and cRNA was synthesized with T3 RNA polymerase. The cRNA was diluted to 400 ng/μl and stored in 1 μl aliquots at −80° C. until injection.
(§3) The Xenopus oocyte Expression System
(§4) Follicle-enclosed oocytes were micro-injected with 1:1 mixtures of cRNA:NR1A+NR2A, 2B, 2C or 2D; injecting ˜2,5, or 20 ng of RNA encoding each receptor subunit. NR1A encoding cRNA was injected alone at ˜20 ng. Oocytes were stored in Barth's medium containing (in mM):NaCl, 88; KCl, 1; CaCl2, 0.41; Ca(NO3)2, 0.33; MgSO4, 0.82 NaHCO3, 2.4; HEPES 5, pH 7.4, with 0.1 mg/ml gentamicin sulphate. While oocytes were still surrounded by enveloping ovarian tissues the Barth's medium was supplemented with 0.1% bovine serum.
(§5) Electrical recordings were made using a conventional two-electrode voltage clamp (Dagan TEV-200) over periods ranging between 3-14 days following injection. […] Drugs were applied by bath perfusion. Using oocytes expressing different subunit combinations of NMDA receptor, NMDA currents were activated by co-application of glutamate and glycine. Inhibitory potency of the novel antagonists was assessed on responses elicited by fixed concentrations of glutamate and glycine, by measuring reductions in current induced by progressively increasing concentrations of antagonists.
(§6) Concentration-inhibition curves were fit with equation 1.
(§7) in which Icontrol is the current evoked by agonists alone, pIC50=−log IC50, IC50 is the concentration of antagonist that produces half maximal inhibition, and n is the slope factor. […] For incomplete curves analysis by fitting was unreliable and IC50 values were calculated by simple regression over linear portions of the curves (Origin: Microcal Software).

[2] = target: NMDA receptor subunits 1A/2C (NR1A+NR2C) (Rattus norvegicus, UniProt P35439+Q00961); assay: Electrophysiological assay at cloned NMDA receptor subunits expressed in Xenopus oocytes, 1A/2C; assay type: cell-based; conditions: cloned rat NMDA receptor in Xenopus oocytes, two-electrode voltage clamp, currents activated by glutamate and glycine; read-out: Subunits (IC50(μM)) 1A/2C
Sequence of NMDA receptor subunits 1A/2C (NR1A+NR2C) (Q00961 20-1237, other chains not shown): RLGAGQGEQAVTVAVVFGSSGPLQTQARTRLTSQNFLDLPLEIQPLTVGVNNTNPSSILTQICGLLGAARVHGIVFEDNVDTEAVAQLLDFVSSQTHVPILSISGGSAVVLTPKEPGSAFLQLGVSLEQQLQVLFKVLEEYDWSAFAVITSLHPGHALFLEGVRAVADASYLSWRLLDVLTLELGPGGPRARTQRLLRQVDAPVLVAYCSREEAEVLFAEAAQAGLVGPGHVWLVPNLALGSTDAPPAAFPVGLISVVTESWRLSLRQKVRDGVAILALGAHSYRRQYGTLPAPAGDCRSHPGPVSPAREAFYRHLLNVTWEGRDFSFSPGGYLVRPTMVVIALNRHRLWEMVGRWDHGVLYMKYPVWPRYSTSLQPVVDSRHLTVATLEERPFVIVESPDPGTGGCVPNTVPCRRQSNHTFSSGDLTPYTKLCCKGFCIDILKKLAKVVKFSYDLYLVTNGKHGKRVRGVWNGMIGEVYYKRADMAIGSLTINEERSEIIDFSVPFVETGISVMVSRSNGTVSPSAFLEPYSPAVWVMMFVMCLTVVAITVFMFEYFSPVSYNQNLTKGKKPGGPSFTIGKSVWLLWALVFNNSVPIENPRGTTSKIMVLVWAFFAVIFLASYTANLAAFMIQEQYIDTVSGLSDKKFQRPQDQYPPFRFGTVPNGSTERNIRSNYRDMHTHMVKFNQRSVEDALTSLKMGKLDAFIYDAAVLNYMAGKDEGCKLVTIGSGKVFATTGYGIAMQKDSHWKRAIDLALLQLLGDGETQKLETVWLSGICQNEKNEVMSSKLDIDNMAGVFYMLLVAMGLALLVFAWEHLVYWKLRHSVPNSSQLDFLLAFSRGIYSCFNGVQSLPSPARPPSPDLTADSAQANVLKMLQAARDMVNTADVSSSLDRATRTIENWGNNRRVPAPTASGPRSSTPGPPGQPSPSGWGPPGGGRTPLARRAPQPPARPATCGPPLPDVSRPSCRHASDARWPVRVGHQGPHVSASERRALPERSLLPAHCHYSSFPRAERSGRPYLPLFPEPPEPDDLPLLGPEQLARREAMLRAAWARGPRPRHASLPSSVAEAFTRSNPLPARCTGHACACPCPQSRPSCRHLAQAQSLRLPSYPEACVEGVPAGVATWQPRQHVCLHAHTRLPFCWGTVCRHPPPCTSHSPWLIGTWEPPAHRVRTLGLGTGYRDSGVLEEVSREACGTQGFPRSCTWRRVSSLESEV
Description: as §1, §2, §3, §4, §5, §6, §7

[3] = tested on: maximal electroshock-induced seizures; assay: Maximal electroshock-induced seizures (MES); assay type: in vivo, mice; conditions: Mus musculus; mice, tonic hindlimb extensor response, 50 mA corneal electrodes; read-out: MES (ED50)
Description: Maximal Electroshock-induced Seizures
Seizures were induced by application of current (50 mA, 60 pulses/sec, 0.8 sec pulse width, 1 sec duration, d.c.) through saline-coated corneal electrodes using a Ugo Basile ECT device (Model 7801). […] A tonic seizure was defined as a hindlimb extension in excess of 90 degrees from the plane of the body. Results were treated in a quantal manner.

[4] = target: NMDA receptor subunits 1A/2D (NR1A+NR2D) (Rattus norvegicus, UniProt P35439+Q62645); assay: Electrophysiological assay at cloned NMDA receptor subunits expressed in Xenopus oocytes, 1A/2D; assay type: cell-based; conditions: two-electrode voltage clamp, currents activated by glutamate and glycine
Description: Electrophysiological Assays at NMDA Receptor Subunits […]
cDNA clones encoding the NR1A, NR2A, NR2B, NR2C and NR2D rat NMDA receptor subtypes were provided by Dr. P. H. Seeburg (see, Morivoshi et al., Nature (Lond.) 354:31-37 (1991); Kutsuwada et al., Nature (Lond.) 358:36-41 (1992) Monyer et al., Science (Washington. D.C.) 256:1217-1221 (1992); Ikeda et al., FEBS Lett. 313:34-38 (1992); Ishii et al., J. Biol. Chem. 268:2836-2843 (1993) for details of these clones or their mouse homologs). The clones were transformed into appropriate host bacteria and plasmid preparations were made with conventional DNA purification techniques. A sample of each clone was linearized by restriction enzyme digestion and cRNA was synthesized with T3 RNA polymerase. The cRNA was diluted to 400 ng/μl and stored in 1 μl aliquots at −80° C. until injection.
The Xenopus oocyte Expression System […]
Electrical recordings were made using a conventional two-electrode voltage clamp (Dagan TEV-200) over periods ranging between 3-14 days following injection. […] Inhibitory potency of the novel antagonists was assessed on responses elicited by fixed concentrations of glutamate and glycine, by measuring reductions in current induced by progressively increasing concentrations of antagonists. […]

[5] = target: NMDA receptor subunits 1A/2B (NR1A+NR2B) (Rattus norvegicus, UniProt P35439+Q00960); assay: Electrophysiological assay at cloned NMDA receptor subunits expressed in Xenopus oocytes, 1A/2B; assay type: cell-based; conditions: cloned rat NMDA receptor in Xenopus oocytes, two-electrode voltage clamp, currents activated by glutamate and glycine; read-out: Subunits (IC50(μM)) 1A/2B
Sequence of NMDA receptor subunits 1A/2B (NR1A+NR2B) (Q00960 27-1482, other chains not shown): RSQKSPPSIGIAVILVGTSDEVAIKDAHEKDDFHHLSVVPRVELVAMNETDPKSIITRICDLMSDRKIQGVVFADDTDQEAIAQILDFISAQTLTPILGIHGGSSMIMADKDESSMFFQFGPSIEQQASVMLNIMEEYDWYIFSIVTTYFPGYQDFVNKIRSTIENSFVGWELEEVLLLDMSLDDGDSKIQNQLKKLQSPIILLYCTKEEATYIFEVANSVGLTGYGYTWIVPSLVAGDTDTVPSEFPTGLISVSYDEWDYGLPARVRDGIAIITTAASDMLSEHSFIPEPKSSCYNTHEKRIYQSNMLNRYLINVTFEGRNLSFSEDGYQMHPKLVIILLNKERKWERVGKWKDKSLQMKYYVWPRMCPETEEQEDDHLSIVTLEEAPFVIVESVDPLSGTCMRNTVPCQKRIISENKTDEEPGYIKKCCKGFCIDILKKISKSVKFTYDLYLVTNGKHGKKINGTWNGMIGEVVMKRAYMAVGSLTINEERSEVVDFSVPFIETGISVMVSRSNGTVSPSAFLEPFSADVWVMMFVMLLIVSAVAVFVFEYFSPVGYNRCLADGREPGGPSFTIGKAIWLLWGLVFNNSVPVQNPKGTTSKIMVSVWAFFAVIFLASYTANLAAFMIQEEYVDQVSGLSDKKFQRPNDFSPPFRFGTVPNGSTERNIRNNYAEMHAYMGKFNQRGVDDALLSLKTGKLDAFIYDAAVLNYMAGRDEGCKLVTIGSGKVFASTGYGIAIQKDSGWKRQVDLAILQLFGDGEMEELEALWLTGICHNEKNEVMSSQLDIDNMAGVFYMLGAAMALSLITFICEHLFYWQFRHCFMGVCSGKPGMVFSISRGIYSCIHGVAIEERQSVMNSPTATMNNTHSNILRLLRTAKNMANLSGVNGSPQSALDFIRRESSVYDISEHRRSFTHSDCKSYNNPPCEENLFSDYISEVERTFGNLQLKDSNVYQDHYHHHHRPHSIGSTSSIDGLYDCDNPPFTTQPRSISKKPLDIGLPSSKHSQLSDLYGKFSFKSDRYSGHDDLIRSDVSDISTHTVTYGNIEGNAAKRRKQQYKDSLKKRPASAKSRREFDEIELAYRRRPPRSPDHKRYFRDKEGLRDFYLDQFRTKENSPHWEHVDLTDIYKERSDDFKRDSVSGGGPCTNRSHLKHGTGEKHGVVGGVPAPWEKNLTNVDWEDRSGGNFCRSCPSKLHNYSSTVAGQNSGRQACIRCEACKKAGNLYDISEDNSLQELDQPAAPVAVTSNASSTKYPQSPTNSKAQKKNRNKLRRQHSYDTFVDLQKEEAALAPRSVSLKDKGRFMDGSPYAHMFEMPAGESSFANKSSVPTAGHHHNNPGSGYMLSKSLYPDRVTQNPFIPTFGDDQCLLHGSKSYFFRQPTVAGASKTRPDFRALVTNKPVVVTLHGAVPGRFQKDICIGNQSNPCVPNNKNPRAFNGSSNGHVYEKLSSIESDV
Description: as §1, §2, §3, §4, §5, §6, §7

## CCOc1ccccc1OCC1CCCCN1CCCOc1ccccc1 (centres unmarked) [Example 17, 2-[(2-Ethoxy)phenyoxy]methyl-1-(3-phenoxy)propylpiperidine]
[1]
  IC50: 13 µM
[2]
  IC50: 110 µM
[3]
  ED50: 1 mg/kg
[4]
  IC50: > 300 µM
[5]
  IC50: 35 µM
